Results on 20 compounds are retold here after patent US8507498B2, “4, 6-disubstituted aminopyrimidine derivatives as inhibitors of protein kinases” (Ingenium Pharmaceuticals GmbH, priority 2007, dated 2013).

The test system of one data set is TNFα. In words: LPS in vivo assay, serum TNF alpha ELISA. The conditions noted are these: LPS mice, 10 or 30 mg/kg single p.o. 30 min prior to LPS, blood 90 min after LPS, vs vehicle. As for the experimental part: (§1) For the LPS induced model of septic shock, mice receive an intraperitoneal (i.p.) injection of 30 μg bacterial Lipopolysaccharide (LPS; L2630 SIGMA) in saline. Said LPS-mediated initiation of the inflammatory signalling cascade results in increasing blood serum concentrations of cytokines such as e.g. TNFα, IL-6 and IL1β. Blood can be taken from these animals at defined time points. Thereafter, serum will be separated and the samples can be stored at −80° C. until cytokine concentrations are measured using commercial ELISA assays. (AL Moreira et al., Braz J Med Biol Res 1997; 30:1199-1207).
(§2) Wildtype mice (strain C3HeB/FeJ) (age, sex and weight matched) were injected with 30 μg LPS (SIGMA) intraperitoneally. 90 minutes after LPS administration these animals were anaesthetized with 0.1 ml/10 g bodyweight Ketamine-Rompun (50/20 mg/ml) and blood for serum preparation was taken via cardiac puncture.
(§3) Pharmacological treatment groups (n=4) of LPS mice received per os (p.o.) injections of CDK-inhibiting compounds or the vehicle (negative control), respectively. In particular, compounds 1, 5, 10, and 84 were administered.
(§4) 10 or 30 mg/kg (compound per bodyweight) of a CDK inhibitor, dissolved in 20% DMSO, 5% Tween 80, 10% Tris 1M pH8, 20% PEG400, 45% PBS was administered as a single p.o. dosage 30 min prior to LPS stimulation. Vehicle control was administered in the same manner.
(§5) 90 minutes (min) after LPS stimulation, blood samples were taken from the mice. Previously, the 90 min time point had been identified as the peak of TNF alpha expression in this animal model by a time course experiment.
(§6) Blood samples (˜500 μl/animal) from the LPS animals were incubated on wet ice for 30 min after cardiac puncture. Afterwards the samples were centrifuged for 15 min at 13.000 rpm. Serum was separated from the clot and stored frozen at −80° C.
(§7) Serum concentrations of TNF alpha and IL6 within the samples were measured by using commercial ELISA Kits (Natutec) according to the manufacturers instructions.
A general note: In an ELISA, binding on a coated surface is turned into a signal by an enzyme label.

In another data set the test system is IL6. The experiment in a line: LPS in vivo assay, serum IL6 ELISA. As to conditions: LPS mice, 10 or 30 mg/kg single p.o. 30 min prior to LPS, blood 90 min after LPS, vs vehicle. How it is done:
as §1, §2, §3, §4, §5, §6, §7

In data set [1] the test system is TNFα expression in LPS-induced THP-1 macrophages. The experiment in a line: In vitro THP-1 assay, TNFα ELISA. The class given is cell-based, human. As to conditions: 0.5 to 5 μM, 60 min pre-incubation, vs DMSO. How it is done:
(§8) THP-1 cells are grown in modified RPMI-1640 medium (ATCC, Cat. No. 30-2001) supplemented with 10% FCS and 1% Pen/Strep. For cytokine inhibition assays, cells are seeded at a density of 5×10^5 cells/ml into 6-well plates in standard growth medium supplemented with 100 ng/ml PMA (Sigma, P1585) to induce differentiation into macrophage-like cells. After 24 hours, the medium is replaced with standard growth medium (without PMA) and the cells are incubated for another 48 hours to complete differentiation. […] Cells are incubated for 60 min with compounds prior to stimulation with 100 ng/ml LPS (Sigma, L2630) for another 4-48 hours. Supernatants are collected and assayed immediately for cytokine expression, e.g. for TNFα, IL-6 and IL-1b using commercially available sandwich ELISA assays (eBioscience, Cat. No 88-7346, 88-7066, 88-7010) or kept frozen at […] until evaluation. Concentrations of TNFα, IL6 and IL1β within the cell culture supernatants are measured by using commercial ELISA Kits (eBioscience) according to the manufacturer's instructions. CDK-inhibitory compounds # 1, 2, 3, 5, 16, 18, 19 and 32 were administered to differentiated THP-1 cells in triplicates as described above (see section 2.). After 60 min of pre-incubation with test or reference compound (SB203580, a p38 inhibitor and BMS345541, an IKK-inhibitor) alone, cells were stimulated with LPS. After incubation for 4-48 h, supernatants were collected and ELISA based determinations of cytokine supernatant concentrations were performed as described in section 3, supra.

Data set [2] deals with IL6 expression in LPS-induced THP-1 macrophages. In words: In vitro THP-1 assay, IL6 ELISA. As to conditions: 0.5 to 5 μM, 60 min pre-incubation, vs DMSO. The class given is cell-based, human. How it is done:
as §8

Entries after “also recorded” stand apart in the source; their conditions may differ.

With `NS(=O)(=O)Cc1cccc(Nc2cc(-c3ccccc3OCC3CCCO3)ncn2)c1` (stereo not drawn) [Compound 82, (3-{6-[2-(tetrahydro-furan-2-ylmethoxy)-phenyl]-pyrimidin-4-ylamino}-phenyl)-methanesulfonamide], the melting point is 168.4 to 169.4 °C.
Take `COc1ccccc1-c1cc(Nc2cccc(CS(=O)(=O)CCCN(C)C)c2)ncn1` [Compound 84, [3-(3-Dimethylamino-propane-1-sulfonylmethyl)-phenyl]-[6-(2-methoxy-phenyl)-pyrimidin-4-yl]-amine]: the “TNFα protein concentration in the blood serum” value (from here on “TNFα protein concentration”) in the data set with TNFα is recorded as “significant repressive effect”. In the data set with IL6, the “IL6 protein concentration in the blood serum” value (“IL6 protein concentration” for short) is on record as “significant repressive effect”.
With `NS(=O)(=O)Cc1cccc(Nc2cc(-c3cccc(C(F)(F)F)c3)ncn2)c1` [Compound 63, {3-[6-(3-Trifluoromethyl-phenyl)-pyrimidin-4-ylamino]-phenyl}-methanesulfonamide], the melting point was 221.5 to 223 °C.
As to `COc1cc(F)ccc1-c1cc(Nc2cccc(CS(N)(=O)=O)c2)ncn1` [Compound 3, {3-[6-(4-Fluoro-2-methoxy-phenyl)-pyrimidin-4-ylamino]-phenyl}-methanesulfonamide], the “inhibition of TNFα expression in the supernatant” value (“inhibition of TNFα expression” below) in data set [1] is listed as “significant inhibitory effect; also recorded: significant inhibition”. The “inhibition of IL6 expression in the supernatant” value (shortened to “inhibition of IL6 expression”) in data set [2] was “significant inhibitory effect; also recorded: significant inhibition”.
For the compound `COCCOc1ccccc1-c1cc(Nc2cccc(CS(C)(=O)=O)c2)ncn1` [Compound 57, (3-Methanesulfonylmethyl-phenyl)-{6-[2-(2-methoxy-ethoxy)-phenyl]-pyrimidin-4-yl}-amine], the melting point lay in the range of 141 to 142.9 °C.
Same read-out and setting: as for `CS(=O)(=O)c1cccc(Nc2cc(-c3ccccc3O)ncn2)c1` [Reference Example 49, 2-[6-(3-methanesulfonyl-phenylamino)-pyrimidin-4-yl]-phenol], the figure is 214 to 216.1 °C.
Turning to `COc1ccccc1-c1cc(Nc2cccc(CS(N)(=O)=O)c2)nc(N)n1` [Compound 66, {3-[2-amino-6-(2-methoxy-phenyl)-pyrimidin-4-ylamino]-phenyl}-methanesulfonamide], the melting point lay in the range of 211.7 to 213.1 °C.
The compound `CCOc1ccccc1-c1cc(Nc2cccc(CS(N)(=O)=O)c2)ncn1` [Compound 1, {3-[6-(2-Ethoxy-phenyl)-pyrimidin-4-ylamino]-phenyl}-methanesulfonamide] had a melting point of 236.3 to 238.6 °C. Further, the “inhibition of TNFα expression” value in data set [1] is on record as “significant inhibitory effect; also recorded: significant inhibition”. In the data set on TNFα, the “TNFα protein concentration” value was “significant repressive effect”. The “inhibition of IL6 expression” value in data set [2] is given as “significant inhibitory effect; also recorded: significant inhibition”. Also, in the data set on IL6, the “IL6 protein concentration” value was “significant repressive effect”.
Regarding `COc1ccccc1-c1cc(Nc2cccc(CS(=O)(=O)NC(C)C)c2)ncn1` [Compound 10, N-Isopropyl-C-{3-[6-(2-methoxy-phenyl)-pyrimidin-4-ylamino]-phenyl}-methanesulfonamide], in the data set on TNFα, the “TNFα protein concentration” value is listed as “significant repressive effect”. The “IL6 protein concentration” value with IL6 is reported as “significant repressive effect”.
In turn, `COCCOc1ccccc1-c1cc(Nc2cccc(CS(N)(=O)=O)c2)nc(C)n1` [Compound 83, (3-{6-[2-(2-methoxy-ethoxy)-phenyl]-2-methyl-pyrimidin-4-ylamino}-phenyl)-methanesulfonamide] displayed a melting point of 209 to 211.1 °C.
On to `NS(=O)(=O)Cc1cccc(Nc2cc(-c3ccccc3OCc3ccccc3)ncn2)c1` [Compound 32, {3-[6-(2-Benzyloxy-phenyl)-pyrimidin-4-ylamino]-phenyl}-methanesulfonamide], for which the “inhibition of TNFα expression” value in data set [1] is given as “significant inhibitory effect; also recorded: significant inhibition”. In data set [2], the “inhibition of IL6 expression” value is “significant inhibitory effect; also recorded: significant inhibition”.
Consider `CCOc1ccccc1-c1cc(Nc2cccc(CS(=O)(=O)NC(C)(C)C)c2)ncn1` [Compound 19, N-tert-Butyl-C-{3-[6-(2-ethoxy-phenyl)-pyrimidin-4-ylamino]-phenyl}-methanesulfonamide], for which the “inhibition of TNFα expression” value in data set [1] was “significant inhibitory effect; also recorded: significant inhibition”. Also, the “inhibition of IL6 expression” value in data set [2] is “significant inhibitory effect; also recorded: significant inhibition”.
Compound `COCCCNS(=O)(=O)Cc1cccc(Nc2cc(-c3ccccc3OC)ncn2)c1` [Compound 33, C-{3-[6-(2-Methoxy-phenyl)-pyrimidin-4-ylamino]-phenyl}-N-(3-methoxy-propyl)-methanesulfonamide] came in with a melting point of 149.2 to 150.8 °C.
The compound `CS(=O)(=O)c1cccc(Nc2cc(-c3ccccc3OCc3ccccc3)ncn2)c1` [Reference Example 51, [6-(2-benzyloxy-phenyl)-pyrimidin-4-yl]-(3-methanesulfonyl-phenyl)-amine] displayed a melting point of 199 to 205 °C.
For `CC(C)Oc1ccccc1-c1cc(Nc2cccc(CS(N)(=O)=O)c2)ncn1` [Compound 5, {3-[6-(2-Isopropoxy-phenyl)-pyrimidin-4-ylamino]-phenyl}-methanesulfonamide], in the data set on TNFα, the “TNFα protein concentration” value is “significant repressive effect”. Also, the “inhibition of IL6 expression” value in data set [2] is listed as “significant inhibition”. Further, the “IL6 protein concentration” value in the data set with IL6 is “significant repressive effect”.
For the compound `COc1ccccc1-c1cc(Nc2cccc(CS(=O)(=O)NC3CCCC3)c2)ncn1` [Compound 16, N-Cyclopentyl-C-{3-[6-(2-methoxy-phenyl)-pyrimidin-4-ylamino]-phenyl}-methanesulfonamide], in data set [1], the “inhibition of TNFα expression” value is “significant inhibitory effect; also recorded: significant inhibition”. For the same compound, in data set [2], the “inhibition of IL6 expression” value was “significant inhibitory effect; also recorded: significant inhibition”.
Turning to `CCOc1ccccc1-c1cc(Nc2cccc(CS(=O)(=O)NC3CC3)c2)ncn1` [Compound 18, N-Cyclopropyl-C-{3-[6-(2-ethoxy-phenyl)-pyrimidin-4-ylamino]-phenyl}-methanesulfonamide], the “inhibition of TNFα expression” value in data set [1] is given as “significant inhibitory effect; also recorded: significant inhibition”. Further, in data set [2], the “inhibition of IL6 expression” value is listed as “significant inhibitory effect; also recorded: significant inhibition”.
Compound `CNS(=O)(=O)Cc1cccc(Nc2cc(-c3ccccc3COC)ncn2)c1` [Compound 80, C-{3-[6-(2-methoxymethyl-phenyl)-pyrimidin-4-ylamino]-phenyl}-N-methyl-methanesulfonamide] returned a melting point of 171 to 172 °C.
Still for that read-out and setting: as for `CCCS(=O)(=O)Nc1cc(Nc2cc(-c3cccc([N+](=O)[O-])c3)ncn2)ccc1C`, the figure is 202 to 203.5 °C.
Same read-out and setting: as for `CS(=O)(=O)Cc1cccc(Nc2cc(-c3ccccc3OCC3CCCO3)ncn2)c1` (stereo not drawn) [Compound 64, (3-methanesulfonylmethyl-phenyl)-{6-[2-(tetrahydro-furan-2-ylmethoxy)-phenyl]-pyrimidin-4-yl}-amine], the figure is 160 to 162.6 °C.

What is called melting point is the temperature, or range, at which the solid turns liquid.
